Test results taken from patent publication US20020103120A1, “Regulation of human phosphodiesterase-like enzyme” (priority 2000, published 2002).
“And” between values parts separate entries of the source, which are not always exact repeats. Identical values can stand only once.

What was measured:
[1] = target: T1, PDE11A4 (Homo sapiens, UniProt Q9HCR9); experiment: PDE11A4 scintillation proximity assay (SPA), inhibition of [3H]-cGMP hydrolysis; type: biochemical; settings: 0.4 μM [3H]-cGMP, 1 ng PDE11A4, RT 1 h, His-tagged recombinant enzyme
T1 construct: His-tag (N); made in house; host or cells: Sf21 insect cells (baculovirus)
Method: Effect of IBMX and dipyridamole was tested. Assays were performed in 384-well white plates in 20 μl containing the indicated concentration of inhibitor, 0.4 μM [^3H]-cGMP (0.025 μCi/well) and 1 ng PDE11A4 in 50 mM Tris-HCl, pH 7.5, 8.3 mM MgCl2, 1.7 mM EGTA, 0.5 mg/ml BSA. Reaction mixtures were incubated at RT for 1 h, then quenched with 30 μl of 18 mM ZnSO4 containing 0.15 mg Yttrium SPA PDE beads. The assay plates were sealed, allowed to settle for 30 min at RT, and counted on a TopCount NTX microscintillation counter (Packard). Reactions were run in triplicate.

[2] = target: T1, PDE11A4; experiment: Lineweaver-Burk analysis of PDE11A4 SPA to determine Km for cGMP; type: biochemical; settings: 1 ng PDE11A4, various cGMP concentrations, RT, 0-90 min
Method: FIG. 17. Lineweaver-Burk analysis to determine Km values for cGMP. Reaction mixtures (20 μl/well) containing 1 ng PDE11A4 and various concentrations of cGMP (1.25 mCi/μmol) were incubated at RT. At various time points between 0 and 90 min the reactions were stopped with 30 μl of 18 mM ZnSO4 containing 0.15 mg Yttrium SPA PDE beads. The assay plates were sealed, allowed to settle for 30 min at RT, and counted on a TopCount NTX microscintillation counter (Packard). Reactions were run in triplicate. A, Time courses of PDE11A4 reaction with various concentration of cGMP. B, Lineweaver-Burk analysis. The Km value for cGMP was determined as 0.4 μM.
Expression of recombinant PDE11A4 was examined by baculovirus expression system in Sf21 cells with or without His-tag at the N-terminus. Since both expression level and enzyme activity of the His-tagged PDE11A4 (His-PDE11A4) was much higher than those of non-tagged enzyme (FIG. 15), His-PDE11A4 was selected for further use. The maximum expression level and activity were obtained from the cells cultured 24 to 48 h after transfection. The His-PDE11A4 was successfully purified by Ni^2+-chelating column chromatography (FIG. 16). The assay was carried out in scintillation proximity assay (SPA) using cGMP as substrate. Km value for cGMP was determined to be 0.4 μM (FIG. 17). […]

[3] = system: human PDE-like enzyme; experiment: Expression of human PDE-like enzyme by Western blotting in oligonucleotide-treated HCT116 cells; type: cell-based; settings: HCT116, oligonucleotide added for seven days
Method: The cell line used for testing is the human colon cancer cell line HCT116. Cells are cultured in RPMI-1640 with 10-15% fetal calf serum at a concentration of 10,000 cells per milliliter in a volume of 0.5 ml and kept at 37° C. in a 95% air/5%CO2 atmosphere.
Phosphorothioate […] are synthesized on an Applied Biosystems Model 380B DNA synthesizer using phosphoroamidite chemistry. A sequence of 24 bases complementary to the nucleotides at position 1 to 24 of SEQ ID NO: 1 is used as the test oligonucleotide. As a control, another (random) sequence is used: 5′-TCAACTGACTAGATGTACATGGAC-3′. Following assembly and deprotection, oligonucleotides are ethanol-precipitated twice, dried, and suspended in phosphate buffered saline at the desired concentration. Purity of the oligonucleotides is tested by capillary gel electrophoresis and ion exchange HPLC. The purified oligonucleotides are added to the culture medium at a concentration of […] once per day for seven days.
This effect is not observed with the control oligonucleotide. After 3 to 7 days, the number of cells in the cultures is counted using an automatic cell counter. The number of cells in cultures treated with the test oligonucleotide (expressed as 100%) is compared with the number of cells in cultures treated with the control oligonucleotide.

T1 sequence (Q9HCR9 whole entry): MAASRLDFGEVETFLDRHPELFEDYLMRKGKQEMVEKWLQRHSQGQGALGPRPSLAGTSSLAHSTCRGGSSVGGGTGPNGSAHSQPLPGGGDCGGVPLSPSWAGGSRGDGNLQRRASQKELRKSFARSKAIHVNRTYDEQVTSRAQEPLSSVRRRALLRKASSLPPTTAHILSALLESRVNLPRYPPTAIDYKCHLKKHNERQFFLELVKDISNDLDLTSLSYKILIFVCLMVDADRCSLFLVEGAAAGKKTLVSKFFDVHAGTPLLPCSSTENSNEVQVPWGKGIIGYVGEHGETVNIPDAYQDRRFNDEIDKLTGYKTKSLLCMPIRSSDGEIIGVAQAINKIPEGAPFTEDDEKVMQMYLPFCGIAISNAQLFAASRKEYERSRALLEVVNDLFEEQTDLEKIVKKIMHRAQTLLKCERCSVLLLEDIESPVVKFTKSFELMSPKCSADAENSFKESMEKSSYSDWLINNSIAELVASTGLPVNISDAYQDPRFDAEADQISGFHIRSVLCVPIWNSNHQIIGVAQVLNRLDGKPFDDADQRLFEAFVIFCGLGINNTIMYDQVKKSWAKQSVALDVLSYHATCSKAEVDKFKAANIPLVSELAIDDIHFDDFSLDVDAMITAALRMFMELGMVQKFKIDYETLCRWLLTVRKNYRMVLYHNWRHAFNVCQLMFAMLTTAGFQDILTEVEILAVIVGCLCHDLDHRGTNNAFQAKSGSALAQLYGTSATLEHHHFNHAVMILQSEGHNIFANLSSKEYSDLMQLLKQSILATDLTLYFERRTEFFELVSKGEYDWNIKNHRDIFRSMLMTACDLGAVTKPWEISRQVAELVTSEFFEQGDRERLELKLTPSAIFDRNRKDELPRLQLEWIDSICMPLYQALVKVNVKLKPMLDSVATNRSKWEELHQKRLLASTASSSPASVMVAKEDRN

In the case of `CC(C)Cn1c(=O)n(C)c(=O)c2[nH]cnc21` [IBMX], the IC50 [1] is reported as 41 µM and 41.3 µM.

Work on `Nc1nc2c(ncn2[C@@H]2O[C@@H]3COP(=O)(O)O[C@H]3[C@H]2O)c(=O)[nH]1` [cGMP] yielded a Km [2] of 0.4 µM.

For “control oligonucleotide: control (random) sequence 5′-TCAACTGACTAGATGTACATGGAC-3′ (DNA TCAACTGACTAGATGTACATGGAC; chemistry not given here)”, the “expression of human PDE-like enzyme (Western blotting)” value [3] was “not observed”.
